Broadly, the Ki is the equilibrium dissociation constant of an inhibitor or competing ligand from its target. Lower therefore signals higher affinity.

For assay [1], the target named is T1, Amine oxidase [flavin-containing] A (Rattus norvegicus, UniProt P21396).
T1 sequence (P21396 whole entry): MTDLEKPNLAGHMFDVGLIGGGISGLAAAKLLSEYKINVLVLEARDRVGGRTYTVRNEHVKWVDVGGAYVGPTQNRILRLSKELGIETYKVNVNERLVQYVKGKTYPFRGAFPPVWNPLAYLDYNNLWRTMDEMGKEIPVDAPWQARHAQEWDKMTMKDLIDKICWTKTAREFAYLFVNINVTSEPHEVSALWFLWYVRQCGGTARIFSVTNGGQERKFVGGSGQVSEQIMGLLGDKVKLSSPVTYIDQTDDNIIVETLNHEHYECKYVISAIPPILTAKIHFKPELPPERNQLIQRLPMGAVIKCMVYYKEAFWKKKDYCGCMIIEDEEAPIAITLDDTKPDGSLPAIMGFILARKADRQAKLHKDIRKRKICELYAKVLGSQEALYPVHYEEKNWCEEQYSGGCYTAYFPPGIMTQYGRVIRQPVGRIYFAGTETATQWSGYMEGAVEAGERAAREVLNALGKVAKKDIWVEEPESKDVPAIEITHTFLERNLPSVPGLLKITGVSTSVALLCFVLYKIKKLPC

In assay [2] the target is T2, Amine oxidase [flavin-containing] B (Rattus norvegicus, UniProt P19643).
T2 sequence (P19643 whole entry): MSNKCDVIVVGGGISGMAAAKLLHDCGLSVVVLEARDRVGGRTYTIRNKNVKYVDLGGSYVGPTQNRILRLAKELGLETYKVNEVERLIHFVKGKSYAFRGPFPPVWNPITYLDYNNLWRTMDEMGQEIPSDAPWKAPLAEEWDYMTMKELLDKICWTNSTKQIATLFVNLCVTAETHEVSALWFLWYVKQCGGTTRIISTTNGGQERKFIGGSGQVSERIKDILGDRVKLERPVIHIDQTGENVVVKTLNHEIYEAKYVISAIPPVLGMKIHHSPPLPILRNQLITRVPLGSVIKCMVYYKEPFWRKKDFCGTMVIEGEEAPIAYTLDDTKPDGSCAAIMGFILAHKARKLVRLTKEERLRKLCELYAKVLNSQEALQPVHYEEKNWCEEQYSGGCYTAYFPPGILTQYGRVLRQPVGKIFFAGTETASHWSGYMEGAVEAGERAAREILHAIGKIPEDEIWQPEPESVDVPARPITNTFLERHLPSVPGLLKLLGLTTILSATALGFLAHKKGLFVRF

Assay [3] addresses Sodium-dependent noradrenaline transporter (Homo sapiens, UniProt P23975).
In assay [4] the target is T3, Alpha-1B adrenergic receptor (Homo sapiens, UniProt P35368).
T3 sequence (P35368 whole entry): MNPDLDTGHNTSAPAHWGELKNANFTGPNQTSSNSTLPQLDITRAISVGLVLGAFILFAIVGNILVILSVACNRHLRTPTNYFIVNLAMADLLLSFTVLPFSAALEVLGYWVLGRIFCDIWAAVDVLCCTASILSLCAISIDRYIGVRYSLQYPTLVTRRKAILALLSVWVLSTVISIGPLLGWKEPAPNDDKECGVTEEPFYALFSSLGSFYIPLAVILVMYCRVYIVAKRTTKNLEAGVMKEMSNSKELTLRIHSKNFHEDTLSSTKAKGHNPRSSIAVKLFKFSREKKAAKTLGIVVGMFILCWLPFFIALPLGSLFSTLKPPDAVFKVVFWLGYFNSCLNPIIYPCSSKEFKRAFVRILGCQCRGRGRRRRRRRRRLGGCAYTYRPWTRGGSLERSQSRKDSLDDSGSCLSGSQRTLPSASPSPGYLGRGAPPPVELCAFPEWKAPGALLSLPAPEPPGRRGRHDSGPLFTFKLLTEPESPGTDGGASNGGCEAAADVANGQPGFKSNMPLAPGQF

Assay [5] has as its target T4, Alpha-1D adrenergic receptor (Homo sapiens, UniProt P25100).
T4 sequence (P25100 whole entry): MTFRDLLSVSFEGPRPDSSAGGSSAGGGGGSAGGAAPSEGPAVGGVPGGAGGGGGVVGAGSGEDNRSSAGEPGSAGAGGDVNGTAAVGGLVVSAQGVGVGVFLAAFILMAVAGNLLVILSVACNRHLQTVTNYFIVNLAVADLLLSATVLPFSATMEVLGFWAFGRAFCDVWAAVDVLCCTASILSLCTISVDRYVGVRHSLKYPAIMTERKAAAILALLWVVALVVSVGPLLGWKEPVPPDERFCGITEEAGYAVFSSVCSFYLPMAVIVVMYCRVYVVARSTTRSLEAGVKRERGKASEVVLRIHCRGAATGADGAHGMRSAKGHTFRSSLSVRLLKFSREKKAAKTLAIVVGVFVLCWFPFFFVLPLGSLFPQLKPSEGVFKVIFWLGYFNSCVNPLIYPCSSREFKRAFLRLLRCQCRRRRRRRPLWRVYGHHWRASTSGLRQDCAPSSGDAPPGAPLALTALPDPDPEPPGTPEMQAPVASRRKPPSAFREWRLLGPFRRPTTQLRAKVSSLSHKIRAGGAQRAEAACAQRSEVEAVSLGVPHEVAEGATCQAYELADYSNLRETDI

Assay [6] deals with Nischarin (Rattus norvegicus, UniProt Q4G017).
Sequence of Nischarin (Q4G017 whole entry): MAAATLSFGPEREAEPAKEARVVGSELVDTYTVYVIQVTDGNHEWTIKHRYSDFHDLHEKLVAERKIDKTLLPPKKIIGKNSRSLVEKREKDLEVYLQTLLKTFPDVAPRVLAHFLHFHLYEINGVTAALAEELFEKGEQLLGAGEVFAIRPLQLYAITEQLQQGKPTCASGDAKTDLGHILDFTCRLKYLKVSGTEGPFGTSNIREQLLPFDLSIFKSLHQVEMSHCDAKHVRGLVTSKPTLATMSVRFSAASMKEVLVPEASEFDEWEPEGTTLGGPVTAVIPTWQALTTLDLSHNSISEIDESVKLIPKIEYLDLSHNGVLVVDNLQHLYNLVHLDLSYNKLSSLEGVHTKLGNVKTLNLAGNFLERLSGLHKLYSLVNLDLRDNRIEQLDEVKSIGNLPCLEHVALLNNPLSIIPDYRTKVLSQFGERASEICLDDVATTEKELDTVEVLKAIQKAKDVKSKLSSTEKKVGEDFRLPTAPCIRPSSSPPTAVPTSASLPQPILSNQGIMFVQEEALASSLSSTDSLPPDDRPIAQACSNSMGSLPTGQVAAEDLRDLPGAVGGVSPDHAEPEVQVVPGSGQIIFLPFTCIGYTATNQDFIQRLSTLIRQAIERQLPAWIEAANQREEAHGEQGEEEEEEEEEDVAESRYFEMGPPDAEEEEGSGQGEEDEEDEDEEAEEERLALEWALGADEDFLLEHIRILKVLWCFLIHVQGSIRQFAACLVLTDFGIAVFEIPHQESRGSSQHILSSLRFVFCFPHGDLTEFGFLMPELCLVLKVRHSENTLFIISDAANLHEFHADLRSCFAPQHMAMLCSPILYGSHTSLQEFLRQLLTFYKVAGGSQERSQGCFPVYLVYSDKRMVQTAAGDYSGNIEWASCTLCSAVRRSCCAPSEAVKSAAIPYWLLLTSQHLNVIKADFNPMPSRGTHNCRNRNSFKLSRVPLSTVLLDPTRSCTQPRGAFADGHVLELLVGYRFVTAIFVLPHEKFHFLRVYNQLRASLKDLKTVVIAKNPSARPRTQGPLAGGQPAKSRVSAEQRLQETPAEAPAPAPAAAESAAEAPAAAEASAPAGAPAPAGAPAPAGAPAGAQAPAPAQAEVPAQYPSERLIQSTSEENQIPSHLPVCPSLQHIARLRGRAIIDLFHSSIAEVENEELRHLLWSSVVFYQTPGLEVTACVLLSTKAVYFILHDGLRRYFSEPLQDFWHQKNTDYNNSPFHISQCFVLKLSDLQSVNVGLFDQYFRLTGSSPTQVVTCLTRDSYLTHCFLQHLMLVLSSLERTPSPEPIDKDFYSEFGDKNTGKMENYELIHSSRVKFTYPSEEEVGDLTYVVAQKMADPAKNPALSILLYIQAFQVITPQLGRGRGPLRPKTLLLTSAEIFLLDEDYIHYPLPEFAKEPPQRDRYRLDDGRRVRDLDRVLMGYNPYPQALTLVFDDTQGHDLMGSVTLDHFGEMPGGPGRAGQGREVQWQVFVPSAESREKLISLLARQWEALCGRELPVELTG

Sequence of Sodium-dependent noradrenaline transporter (P23975 whole entry): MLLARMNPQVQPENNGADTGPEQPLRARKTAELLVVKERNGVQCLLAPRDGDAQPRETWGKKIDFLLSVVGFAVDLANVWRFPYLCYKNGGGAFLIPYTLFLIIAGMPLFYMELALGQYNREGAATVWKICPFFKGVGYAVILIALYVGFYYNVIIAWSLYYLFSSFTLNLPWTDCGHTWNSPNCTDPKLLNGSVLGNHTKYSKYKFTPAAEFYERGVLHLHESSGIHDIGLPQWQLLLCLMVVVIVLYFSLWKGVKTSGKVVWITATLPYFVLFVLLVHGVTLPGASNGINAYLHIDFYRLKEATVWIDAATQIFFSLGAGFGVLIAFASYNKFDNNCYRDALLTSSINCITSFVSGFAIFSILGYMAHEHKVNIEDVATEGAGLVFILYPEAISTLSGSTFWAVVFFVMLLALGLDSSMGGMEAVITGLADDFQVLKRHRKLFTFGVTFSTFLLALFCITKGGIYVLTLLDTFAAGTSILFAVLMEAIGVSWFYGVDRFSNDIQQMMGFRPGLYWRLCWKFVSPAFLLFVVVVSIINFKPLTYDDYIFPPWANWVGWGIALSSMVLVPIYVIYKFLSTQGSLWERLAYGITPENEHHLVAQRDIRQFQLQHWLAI

For the compound `Clc1cccc(Cl)c1N=C1NCCN1` [2-(2,6-dichloroanilino)-2-imidazoline], the inhibition constant (Ki) in assay [1] came out at 1000 nM; in assay [2] it was 1000 nM; in assay [3], 1000 nM; in assay [4], 316 nM; in assay [5], 126 nM; in assay [6] it was 1000 nM.

(Values after BindingDB's records for PubMed 11082457 (Centre De Recherches De Croissy, 2000).)
